Results published in patent US20240400546A1, “COMPOUNDS AND USES THEREOF” (JANSSEN PHARMACEUTICA NV, priority 2016, published 2024).
Read-outs that look alike come from different tables or passages of the source.

Columns and labels:
[1] = biological target: T1, SCD1 (Homo sapiens, UniProt O00767); assay: Growth inhibition of humanized yeast expressing SCD1 as sole desaturase; format: cell-based; details: humanized yeast expressing SCD1
T1 construct: host or cells: S. cerevisiae ole1Δ strain, plasmid pRS316 with TDH3 promoter and CYC1 terminator
T1 sequence (O00767 1-359): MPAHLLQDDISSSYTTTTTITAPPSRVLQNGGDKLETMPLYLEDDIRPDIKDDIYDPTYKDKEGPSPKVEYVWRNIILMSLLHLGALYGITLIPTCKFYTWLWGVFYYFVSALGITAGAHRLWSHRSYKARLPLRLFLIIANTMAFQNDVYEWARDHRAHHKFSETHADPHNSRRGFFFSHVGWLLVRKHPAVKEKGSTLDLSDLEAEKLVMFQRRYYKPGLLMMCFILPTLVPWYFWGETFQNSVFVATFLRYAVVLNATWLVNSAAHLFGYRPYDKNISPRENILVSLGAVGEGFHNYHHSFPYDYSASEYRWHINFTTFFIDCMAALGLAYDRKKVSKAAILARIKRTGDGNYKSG
Method in brief: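 ole1Δ yeast (W303 pdr1Δ pdr3Δ background) carried plasmid-borne human SCD1, human SCD5 or yeast Ole1 as the sole desaturase and were grown in uracil-lacking galactose medium in 384-well plates. Starting 2× density was OD600 0.02, with incubation at 30 °C. Growth was read as OD600 at 24 h for Ole1 and at 40 h for SCD1 and SCD5.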

[2] = biological target: T2, SCD5 (Homo sapiens, UniProt Q86SK9); assay: Growth inhibition of humanized yeast expressing SCD5 as sole desaturase; format: cell-based; details: humanized yeast expressing SCD5
T2 construct: host or cells: S. cerevisiae ole1Δ strain, plasmid pRS316 with TDH3 promoter and CYC1 terminator
T2 sequence (Q86SK9 1-330): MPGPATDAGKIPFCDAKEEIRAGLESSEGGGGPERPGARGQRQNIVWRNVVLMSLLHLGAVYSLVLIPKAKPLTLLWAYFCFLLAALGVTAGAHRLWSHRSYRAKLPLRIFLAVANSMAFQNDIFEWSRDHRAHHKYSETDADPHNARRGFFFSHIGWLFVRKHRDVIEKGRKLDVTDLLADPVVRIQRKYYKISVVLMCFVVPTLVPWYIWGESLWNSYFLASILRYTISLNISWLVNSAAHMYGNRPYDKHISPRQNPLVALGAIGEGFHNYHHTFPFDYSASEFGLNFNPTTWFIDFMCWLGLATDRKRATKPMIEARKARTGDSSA
Procedure: (§1) Strain ole1Δ (yeast ole1 deletion mutant) was constructed by deleting OLE1 with NAT-MX6 in BY4741, amplifying the deletion cassette from the genomic DNA of the resulting strain with primers flanking the ORF by 1000 bp upstream and downstream, transforming the resulting deletion cassette into W303 pdr1Δ pdr3Δ, and plating transformants on YPD media containing G418 (200 μg/mL) and nourseothricin (100 μg/mL) with 0.01% TWEEN®-20 and 0.5 mM oleic and palmitoleic acids.
(§2) The coding sequence of yeast OLE1 was also cloned into this plasmid). These clones were then transformed into the ole1Δ strain and plated on CSM-Ura media (CSM lacking uracil) with 2% glucose (w/v) and independent colonies were isolated and amplified.
(§3) All compound profiling experiments were performed using the same basic protocol. Different genetic backgrounds (e.g., gene deletions) or conditions (e.g., addition of oleic and palmitoleic acid) were replaced as indicated below.
(§4) Yeast were cultured using standard techniques in complete synthetic media (CSM) and yeast nitrogen base supplemented with 2% (w/v) carbon source (glucose, raffinose, or galactose) to regulate the expression of the toxic disease protein. An initial starter culture was inoculated in 3 mL CSM-Glucose media and incubated overnight in a 30° C. shaker incubator (225 rpm). Saturated morning cultures were then diluted 1:20 in fresh CSM-Raffinose media and grown for 6 h to an OD600 (optical density) of ˜0.4-0.8 at 30° C. with shaking.
(§5) Compound administration was performed in two separate steps. First, 15 μL of CSM-Galactose (induces expression of toxic protein) was dispensed into clear 384 well assay plates using a MULTIDROP™ Combi reagent dispenser. […] The cultures described above were then diluted to a 2× concentration (0.03 and 0.08 for alpha-synuclein and ApoE, final OD600 of 0.015 and 0.04) in CSM-Galactose. For wild-type and Ole1/SCD1/SCD5 plasmid-containing strains, the 2× cell density was 0.02. […] For 96-well assays (FIGS. 1A and 1B), compound dilutions in DMSO were generated in 96 well plates and 1 μL was manually pipetted into 96 well clear bottom assay plates.
(§6) For experiments using a plasmid-borne copy of Ole1, SCD1, or SCD5 (FIGS. 3B, 6, and 7), media lacking uracil (SX-Ura, where X is glucose, raffinose, or galactose), was used for all steps of the compound profiling protocol to ensure its maintenance throughout the assay.
(§7) After yeast delivery, assay plates were incubated under humidified conditions at 30° C. for 24 to 40 h. ApoE4 rescue experiments were stopped at 24 h, aSyn experiments at 40 h, Ole1 at 24 h, and SCD1/SCD5 at 40 h. The growth of yeast was monitored by reading the OD600 of each well using a microplate reader (Perkin Elmer EnVision™).

[3] = system: yeast strains expressing the human protein α-synuclein; assay: Yeast rescue assay, α-synuclein toxicity (OD600 growth); format: cell-based; details: 40 h; for EC50: read-out: α-Syn EC50
Procedure: (§8) In a standard yeast assay, a single-use aliquot of cells was thawed on ice and diluted into CSM/glucose (5 mL). Cultures were grown for 8 hours at 30° C. This pre-growth enables the yeast to exit the thaw and begin to grow without expressing aSyn or ApoE4. After 8 hours, cell density (OD600) was determined and cultures diluted to an OD600 of 0.01 in CSM/raffinose for an overnight culture phase at 30° C. During this period, the active glucose repression of the GAL1 promoter was relieved; however, expression of the α-Syn/ApoE4 genes were not yet induced. After ˜16 hours of growth, cultures attain an OD600 of 0.4-0.8 and were ready to apply to assay plates containing compound.
(§9) Compound profiling assays were executed in clear-bottom 384 well plates. First, compound plates were thawed at room temperature for 45′, centrifuged at 1,000×g for 1 minute, and the foil removed. Clear 384 well assay plates were then filled with 15 μL of CSM/galactose. Both compound and media-containing plates were arranged on the Janus workstation and a compound pin tool (384×100 nL slotted pins) used to deliver 100 nL of compounds to each well according to the well map of the compound plate. Based on the previous serial dilution, the final concentration of compound ranged from […] to 12.5 nM. The pin tool was washed iteratively with both 50% DMSO and 100% ethanol between each assay plate. After delivering compound to each assay plate, the overnight CSM/raffinose aSyn or ApoE4 cultures were added at a 2× cell density (0.04 for aSyn and 0.08 for ApoE4) in CSM/galactose to achieve a final assay OD600 of 0.02 and 0.04 for aSyn and ApoE, respectively. The cultures (15 μL per well) were then dispensed to the compound-containing 384 well assay plates using an automated plate filler. Plates were incubated in a humidified 30° C. incubator for 40 or 24 hours for aSyn and ApoE4, respectively. The OD600 of each assay plate was then read with a microplate reader (e.g., Perkin Elmer Envision).
The efficacy and potency of compounds were calculated according to the following. Raw data (OD600 values) were first background corrected to account for OD600 contributed by the plate and media itself. The efficacy (percent above DMSO, herein referred to as “Emax”) was calculated according to the equation: (Experimental well−DMSO control well)/(DMSO control well)*100. […] Normalized dose-response data was fit with a logistic regression curve using Spotfire (TIBCO), or similar curve-fitting software package. EC50 values were then reported along with EMax to provide both efficacy and potency measures for each analog and enable further compound design.

[4] = biological target: T1, SCD1; assay: Growth of yeast surviving solely on human SCD1; format: cell-based; details: percent of the DMSO-treated condition
Procedure: (§10) FIG. 6 is a series of graphs showing that commercial Scd inhibitors target human SCD1/SCD5 in yeast. Yeast surviving solely on yeast OLE1, or human SCD1 or SCD5, were treated with four commercial Scd inhibitors at indicated concentrations. Data are expressed as a percent of the DMSO-treated condition.
(§11) FIG. 7 is a series of graphs showing that 1,2,4-oxadiazoles target human SCD1 and SCD5. Three “SCD” strains expressing yeast OLE1 or human SCD1 or SCD5 were treated with five representative 1,2,4-oxadiazoles and a cycloheximide toxicity control at concentrations indicated on the logic x-axis. The y-axis indicates the percent of the DMSO-treated condition. […] Approximately one half of all (250) 1,2,4-oxadiazoles tested inhibited SCD1 or SCD5 in a manner that was reversed by oleic/palmitoleic acid treatment.

[5] = biological target: T3, yeast OLE1 (Saccharomyces cerevisiae, UniProt P21147); assay: Growth of yeast surviving solely on yeast OLE1; format: cell-based; details: percent of the DMSO-treated condition
T3 construct: expressed in transfected cells; host or cells: S. cerevisiae ole1Δ strain (W303 pdr1Δ pdr3Δ background), plasmid pRS316 with TDH3 promoter and CYC1 terminator
T3 sequence (P21147 1-510): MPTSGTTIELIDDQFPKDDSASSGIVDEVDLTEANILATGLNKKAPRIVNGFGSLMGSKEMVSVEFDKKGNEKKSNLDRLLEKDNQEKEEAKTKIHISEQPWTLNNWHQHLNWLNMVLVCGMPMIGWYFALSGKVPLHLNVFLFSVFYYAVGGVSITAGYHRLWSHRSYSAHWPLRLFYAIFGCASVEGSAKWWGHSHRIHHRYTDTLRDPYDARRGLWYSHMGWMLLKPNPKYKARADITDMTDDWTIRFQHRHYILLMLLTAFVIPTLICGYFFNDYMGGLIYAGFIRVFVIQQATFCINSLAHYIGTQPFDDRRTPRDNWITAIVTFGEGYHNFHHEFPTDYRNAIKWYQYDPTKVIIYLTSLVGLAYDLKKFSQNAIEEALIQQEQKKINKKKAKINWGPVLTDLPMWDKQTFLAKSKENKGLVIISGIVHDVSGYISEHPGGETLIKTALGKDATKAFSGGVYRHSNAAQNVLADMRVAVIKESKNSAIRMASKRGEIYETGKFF
Procedure: as §10, §11

[6] = biological target: T2, SCD5; assay: Growth of yeast surviving solely on human SCD5; format: cell-based, yeast expressing human SCD5; details: percent of the DMSO-treated condition
Procedure: as §10, §11

[7] = biological target: T4, Ole1 (Saccharomyces cerevisiae, UniProt P21147); assay: Growth inhibition of yeast expressing Ole1 as sole desaturase; format: cell-based; details: yeast expressing Ole1 as sole desaturase
T4 construct: expressed in transfected cells; host or cells: S. cerevisiae ole1Δ strain (W303 pdr1Δ pdr3Δ background), plasmid pRS316 with TDH3 promoter and CYC1 terminator
T4 sequence (P21147 1-510): T3 sequence (P21147 1-510)
Procedure: as §1, §2, §3, §4, §5, §6, §7

[8] = system: yeast strains expressing the human protein ApoE4; assay: Yeast rescue assay, ApoE4 toxicity (OD600 growth); format: cell-based; details: 24 h
Procedure: as §8
as §9, with “The cultures (15 μL per well) were then dispensed to the compound-containing 384 well assay plates using an automated plate filler. Plates were incubated in a humidified 30° C. incubator for 40 or 24 hours for aSyn and ApoE4, respectively.” left out
The efficacy and potency of compounds were calculated according to the following. […] The efficacy (percent above DMSO, herein referred to as “Emax”) was calculated according to the equation: (Experimental well−DMSO control well)/(DMSO control well)*100. […]

`CCOc1ccc(-c2noc(C3CCN(C(=O)[C@@H]4CC[C@H](c5ccccc5)N4)CC3)n2)cc1OC` [compound 119] was tested, and the IC50 [1] was > 45 µM, the IC50 [2] was > 45 µM and the Emax ([3]; Homo sapiens, percent above DMSO, read-out: α-Syn Emax) was 61%. For the same molecule, the EC50 ([3]; Homo sapiens) was 20.9 µM.
In the case of `C[C@@H]1C[C@@H]([C@H](O)CC2CC(=O)NC(=O)C2)C(=O)[C@@H](C)C1` [Cyclohexamide, cycloheximide], the “growth of SCD1-expressing yeast” value [4] is reported as “inhibited growth of all three strains with the same potency”, the “growth of Ole1-expressing yeast” value [5] is reported as “inhibited growth of all three strains with the same potency” and the “growth of SCD5-expressing yeast” value [6] is reported as “inhibited growth of all three strains with the same potency”.
For `Cc1ccc(-c2noc(C3CCN(C(=O)C4CC(=O)N(c5ccc(C)c(C)c5)C4)CC3)n2)cc1` (centres unmarked) [Compound 61], the “SCD1 % Max Inhibition” value [1] was 2.37%, the IC50 [7] was 40.9 µM and the “OLE1 % Max Inhibition” value [7] was 71.50%. The EC50 ([8]; Homo sapiens) was 19.4 µM, the Emax ([8]; Homo sapiens, percent above DMSO) was 465% and the “SCD5 % Max Inhibition” value [2] was 13.18%. For the same molecule, the EC50 [3] was 19.7 µM and the “α-Syn Emax” value ([3]; percent above DMSO) was 229%.
`CCOc1ccc(-c2noc(C3CCN(C(=O)N4CCCCC4)CC3)n2)cc1OC` [Compound 53] was tested, and the “ApoE4 Emax” value ([8]; percent above DMSO) was 296% and the “α-Syn Emax” value ([3]; percent above DMSO) was 81%.
